pKi: −log10 of the molar value.

Experiment [1] deals with Mcl-1 (Homo sapiens (Human), UniProt Q07820). Kind of experiment: Fluorescence polarization anisotropy (FPA) competition assay, FITC-Bak or FITC-Bim BH3 peptide. The experiment is classed as binding. The conditions noted are these: read-out: Ki for Inhibition of Mcl-1 by FPA assay.
In experiment [2] the test system is H929 human cancer cell lines. The experiment can be described thus: Cellular viability / proliferation (Cell TiterGlo, 72 h). It counts as cell-based. The conditions noted are these: Homo sapiens, NCI-H929, 72 h, read-out: GI50 on cellular proliferation of H929 human cancer cell lines, H929 cells, 72 h, Cell TiterGlo, 10% FBS. Put shortly:
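Compounds were added as 2-fold serial dilutions from 50 μM (final DMSO <1%) to H929 cells seeded 1,000 per well in 10% FBS medium one day earlier.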
(Cellular ATP, detected with luciferase, serves as a proxy for viable cell number.)

Sequence of Mcl-1 (Q07820 172-327): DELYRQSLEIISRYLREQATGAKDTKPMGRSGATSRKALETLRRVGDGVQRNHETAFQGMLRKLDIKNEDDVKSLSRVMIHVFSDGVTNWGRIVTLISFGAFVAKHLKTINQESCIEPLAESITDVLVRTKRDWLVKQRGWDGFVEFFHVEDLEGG

The term pKi denotes the Ki on a negative log10 scale, so that one unit is a factor of ten. For `Cc1cc(OCCCc2c3n(c4c(-c5c(C)nn(C)c5C)c(Cl)ccc24)[C@H](C)CN(c2cn(C)c4ccc(-c5nnn[nH]5)cc24)C3=O)cc(C)c1Cl` [Example 251, (R)-7-Chloro-10-(3-(4-chloro-3,5-dimethylphenoxy)propyl)-4-methyl-2-(1-methyl-5-(1H-tetrazol-5-yl)-1H-indol-3-yl)-6-(1,3,5-trimethyl-1H-pyrazol-4-yl)-3,4-dihydropyrazino[1,2-a]indol-1(2H)-one], in experiment [1], the pKi is greater than 9.00. The GI50 in experiment [2] was determined as 250 nM.

As to `Cc1cc(OCCCc2c3n(c4c(-c5c(C)ncnc5C)c(Cl)ccc24)[C@H](C)CN(c2cccc4c2c(C(=O)O)cn4C)C3=O)cc(C)c1Cl` [Example 252, 4-[(4R)-7-chloro-10-[3-(4-chloro-3,5-dimethyl-phenoxy)propyl]-6-(4,6-dimethylpyrimidin-5-yl)-4-methyl-1-oxo-3,4-dihydropyrazino[1,2-a]indol-2-yl]-1-methyl-indole-3-carboxylic acid], the pKi in experiment [1] was 8.89. The GI50 in experiment [2] was 2000 nM.

As to `Cc1cc(OCCCc2c3n(c4c(-c5c(C)nn(C)c5C)c(Cl)ccc24)[C@H](C)CN(c2ccnc4c(C(=O)O)cccc24)C3=O)cc(C)c1Cl` [Example 253, (R)-4-(7-Chloro-10-(3-(4-chloro-3,5-dimethylphenoxy)propyl)-4-methyl-1-oxo-6-(1,3,5-trimethyl-1H-pyrazol-4-yl)-3,4-dihydropyrazino[1,2-a]indol-2(1H)-yl)quinoline-8-carboxylic acid], the pKi in experiment [1] is 8.92. The GI50 in experiment [2] was 1100 nM.

For the molecule `Cc1cc(OCCCc2c3n(c4c(-c5c(C)nn(C)c5C)c(Cl)ccc24)[C@H](C)CN(c2cccc4cc(C(=O)O)n(CC5CC5)c24)C3=O)cc(C)c1Cl` [Example 254, 7-[(4R)-7-chloro-10-[3-(4-chloro-3,5-dimethyl-phenoxy)propyl]-4-methyl-1-oxo-6-(1,3,5-trimethylpyrazol-4-yl)-3,4-dihydropyrazino[1,2-a]indol-2-yl]-1-(cyclopropylmethyl)indole-2-carboxylic acid], the pKi in experiment [1] is greater than 9.00. Besides, the GI50 in experiment [2] was 580 nM.

As for `COCCn1c(C(=O)O)cc2cccc(N3C[C@@H](C)n4c(c(CCCOc5cc(C)c(Cl)c(C)c5)c5ccc(Cl)c(-c6c(C)nn(C)c6C)c54)C3=O)c21` [Example 256, 7-[(4R)-7-chloro-10-[3-(4-chloro-3,5-dimethyl-phenoxy)propyl]-4-methyl-1-oxo-6-(1,3,5-trimethylpyrazol-4-yl)-3,4-dihydropyrazino[1,2-a]indol-2-yl]-1-(2-methoxyethyl)indole-2-carboxylic acid], the pKi in experiment [1] is greater than 9.00. In addition, the GI50 in experiment [2] is 270 nM.

As to `CC(=O)Nc1ccc2c(c1)c(N1C[C@@H](C)n3c(c(CCCOc4cc(C)c(Cl)c(C)c4)c4ccc(Cl)c(-c5c(C)nn(C)c5C)c43)C1=O)cn2C` [Example 257, N-[3-[(4R)-7-chloro-10-[3-(4-chloro-3,5-dimethyl-phenoxy)propyl]-4-methyl-1-oxo-6-(1,3,5-trimethylpyrazol-4-yl)-3,4-dihydropyrazino[1,2-a]indol-2-yl]-1-methyl-indol-5-yl]acetamide], in experiment [1], the pKi is 8.64. Further, the GI50 in experiment [2] stood at 470 nM.

For `Cc1cc(OCCCc2c3n(c4c(-c5c(C)nn(C)c5C)c(Cl)ccc24)[C@H](C)CN(c2cn(C)c4c(-c5nnn[nH]5)cccc24)C3=O)cc(C)c1Cl` [Example 258, (R)-7-Chloro-10-(3-(4-chloro-3,5-dimethylphenoxy)propyl)-4-methyl-2-(1-methyl-7-(1H-tetrazol-5-yl)-1H-indol-3-yl)-6-(1,3,5-trimethyl-1H-pyrazol-4-yl)-3,4-dihydropyrazino[1,2-a]indol-1(2H)-one], the negative-log Ki (pKi) in experiment [1] was greater than 9.00. Also, in experiment [2], the GI50 stood at 3600 nM.

Source of the values: US11596639B2, “Substituted indole Mcl-1 inhibitors” (Vanderbilt University, priority 2016, dated 2023).
